From EP0593765A1, “6-SUBSTITUTED LIPID A ANALOG” (priority 1991, dated 1993)

Experiments:
TNF = TNF producing activity (TNF in serum measured by damage of L929 cells); type: in vivo, ICR mouse; conditions: Corynebacterium parvum primed mouse, 10 µg/mouse intravenously nine days later, blood sampled 90 minutes later; reciprocal of serum dilution showing 50% cytotoxicity
Experimental: The producing activity of TNF was evaluated in the following experiment.
The first stimulating agent, 5% suspension (0.2 mℓ physiological saline) of Corynebacterium parvum was intravenously administered to ICR mouse (female, 6 - 7 weeks old). Nine days later, as the second stimulating agent, 10 µg/mouse of the compound of the invention was intravenously administered, and 90 minutes later, 0.5 to 1 mℓ of blood was sampled from the retro-orbital plexus. After being allowed to stand at room temperature for 5 to 6 hours, the blood was centrifuged at 7200 × g for 5 minutes to separate the serum. The serum was incubated at 56°C for 30 minutes for inactivation before use in the following experiment.
The TNF activity in serum was determined by measuring the damage of L929 cells were adjusted to a concentration of 6 × 10⁴ cells/well (0.1 mℓ) on the culture medium of RPMI 1640 containing 10% of fetal bovine serum (FBS) and 2 µg/mℓ of actinomycin D, and were seeded on a 96-well plates. The serum was diluted in steps in the RPMI 1640 medium with 10% FBS, and added to the cell by 0.1 mℓ for each. After incubation for 48 hours at 37°C, the viable cells were fixed with methanol. After staining the cells with 0.2% crystal violet, the cells were dissolved in 1% sodium dodecyl sulfate (SDS), and the absorbance at 550 nm was measured. […]

interleukin-1 (IL-1) = test: IL-1 producing activity (peripheral blood monocyte fraction; supernatant measured on A375 Met-Mix cells); type: cell-based, human; conditions: 50 µg of compound, 1 × 10⁶ cells/well, 48 hours at 37°C; reciprocal of supernatant dilution showing 50% inhibition
Experimental: The producing activity of interleukin-1 (IL-1) was determined in the following experiment [see Biochem. Biopys. Res. Comm., Vol. 154, 1189 - 1196, 1988].
From 50 mℓ of human peripheral blood, buffy coat was isolated, and peripheral blood monocyte fraction was obtained by using Lymphoprep (Wako Pharmaceutical). After hemolyzing mixed erythrocytes, cells were rinsed twice in Dulbecco's modified Eagle medium (MEM), and suspended in the RPMI 1640 medium containing 5% fetal cow serum (FCS) and 2.5 × 10⁻⁵ M 2-mercaptoethanol. The cells (1 × 10⁶ cells/well) were incubated in a 24-well plate containing 50 µg (50 µℓ) of the compound of the invention for 48 hours at 37°C in the presence of 5% carbon dioxide, and the supernatant of culture was samples as IL-1 induction supernatant. The IL-1 activity in the IL-1 induction supernatant was evaluated by measuring the growth inhibitory activity of IL-1 susceptible human melanoma cell A375 Met-Mix. The cells of A375 Met-Mix (2 × 10³ cells/0.1 mℓ/well) were suspended in RPMI 1640 medium containing 10% FCS, and the IL-1 induction supernatant (0.1 mℓ/well) diluted in steps was added and incubated in a 96-well plate for 96 hours at 37°C in the presence of 5% carbon dioxide. After incubation, the viable cells were fixed with methanol, and the cells were stained with 0.2% crystal violet, and the cells were dissolved with 1% SDS, and the absorbance at 550 nm was measured. […]

[1] = Lethal toxicity by galactosamine loading; design: species or system C57BL mouse; conditions: mouse, in vivo, ip; 10 mg D-galactosamine hydrochloride intraperitoneally, compound in the caudal vein immediately after; observed to the seventh day; read-out: LD₅₀ (Galactosamine load)
Experimental: The lethal toxicity by galactosamine loading was evaluated in the following experiment [see J. Biochem., Vol. 98, 395 - 406, 1985].
To C57BL mouse (female, 7 weeks old), 10 mg of D-galactosamine hydrochloride was intraperitoneally administered, and the compound of the invention was administered in the caudal vein immediately after that.

spleen cells = test: Mitogen activity (³H-thymidine uptake into spleen cells); type: cell-based, C3H/HeN mouse; conditions: 48 hours incubation
Experimental: The mitogen activity was evaluated in the following experiment [see Eur. J. Immunol., Vol. 14, 109 - 114, 1984].
The spleen of C3H/HeN mouse (male, 6 - 10 weeks old) was aseptically removed, rubbed and loosened in MEM, and passed through stainless steel mesh, and spleen cells were sampled. After hemolyzing the erythrocytes mixed in the spleen cells, the cells were suspended in RPMI 1640 medium containing 5% FBS and presented for the experiment.
The mitogen activity of the compound of the invention was evaluated by measuring the quantity of ³H-thymidine taken into the spleen cells treated with the compound of the invention. That is, the spleen cells adjusted to 5 × 10⁶ cells/well (100 µℓ) were seeded in a 96-well plate, and the compound of the invention (100 µℓ) at specified concentration was added to the spleen cells. After incubation for 48 hours at 37°C in the presence of 5% carbon dioxide, 1 µCi/well (50 µℓ) of ³H-thymidine was added to the incubated cells, which were incubated for further 4 hours. The cells were washed in phosphate buffer saline (PBS), and the titer of ³H-thymidine (radioactivity) taken in the cells was determined by liquid scintillation counter. […]

neutrophils = test: O₂⁻ production stimulating activity in neutrophils; type: cell-based, C3H/HeN mouse; conditions: compound 10 µg/mℓ, 37°C for 60 minutes, then cytochrome C (80 µM) and FMLP (0.1 µM); SOD-inhibitable cytochrome C reduction
Experimental: The O₂⁻ production stimulating activity in neutrophils was evaluated in the following experimental system [see J. Exp. Med., Vol. 160, 1656 - 1671, 1984].
In the peritoneal cavity of C3H/HeN mouse (male, 8 - 9 weeks old), physiological saline containing 0.2% (w/v) of casein was administered. Three hours later, peritoneal exudate cells (90% or more of which are neutrophils) induced in the peritoneal cavity were collected. These cells (1.7 × 10⁶ cells/ml/tube) were incubated in the presence of the compound of the invention (10 µg/mℓ) at 37°C for 60 minutes, and cytochrome C (80 µM) and fomyl-methionyl-leucyl-phenylalanine (FMLP) (0.1 µM) were added. After reaction for 10 minutes at 37°C in the presence of or in the absence of superoxide dismutase (SOD), the SOD-inhibitable cytochrome C reduction quantity was calculated from the difference of absorbances at 550 nm and 541.7 nm and the molar absorption coefficient (16.5 × 10³). The O₂⁻ production stimulating activity was expressed in the following stimulation percentage. [formula] The compounds of the invention presented the activities as shown in the below table.

[2] = compound concentration 10 µg/mℓ

CCCCCCCCCCCCCCC(CCCCCCCCCCCC)C(=O)O[C@H]1[C@H](OP(=O)(O)O)[C@@H](CO)OC[C@@H]1NC(=O)C[C@H](O)CCCCCCCCCCC (stereo partly shown) [Control compound, reference compound]
TNF titer in serum (TNF): 538900 U/mℓ | IL-1 titer (interleukin-1 (IL-1)): 15 U/mℓ | LD50 at 168 h [1]: 0.0028 mg/kg | Simulation index (spleen cells; compound concentration 1 µg/mℓ): 2.7 | Simulation index (spleen cells; [2]): 18.3 | Stimulation percentage (neutrophils): 80

CCCCCCCCCCCCCCC(CCCCCCCCCCCC)C(=O)O[C@H]1[C@H](OP(=O)(O)O)[C@@H](COC(=O)C(C)(C)C)OC[C@@H]1NC(=O)C[C@H](O)CCCCCCCCCCC (mixture of isomers) [Example 4, 1,5-Anhydro-2-deoxy-3-O-{(2RS)-2-dodecylhexadecanoyl}-2-{(3R)-3-hydroxytetradecanamido}-4-O-phosphono-6-O-pivaloyl-D-glucitol]
IL-1 titer (interleukin-1 (IL-1)): 16 U/mℓ | Simulation index (spleen cells; compound concentration 1 µg/mℓ): 5.1 | Simulation index (spleen cells; [2]): 19.6 | Stimulation percentage (neutrophils): 293

CCCCCCCCCCCCCCC(CCCCCCCCCCCC)C(=O)O[C@H]1[C@H](OP(=O)(O)O)[C@@H](COC(=O)CCC(=O)OC)OC[C@@H]1NC(=O)C[C@H](O)CCCCCCCCCCC (stereo partly shown) [Example 1]
TNF titer in serum (TNF): 727800 U/mℓ | IL-1 titer (interleukin-1 (IL-1)): 24 U/mℓ | LD50 at 168 h [1]: 0.0299 mg/kg | Simulation index (spleen cells; compound concentration 1 µg/mℓ): 14.8 | Simulation index (spleen cells; [2]): 26.5 | Stimulation percentage (neutrophils): 363
